The results in this text go back to PMC11284787, “Ligand-Directed Labeling of the Adenosine A1 Receptor in Living Cells” (Journal of Medicinal Chemistry, 2024).

Structures are written as SMILES. Where only a bound is given, the exact number is not on record here.

For one test, the target named is T1, NL-hA2AAR (Homo sapiens, UniProt P29274).
T1 construct: expressed in transfected cells; host or cells: HEK293T, transient transfection (FuGENE)
Put plainly: NanoBRET competition ligand-binding assay (CA200645 tracer), NL-hA2AAR. Conditions: CA200645 (25 nM) tracer, transient HEK293T, mean ± SEM; read-out: affinity values pKi, NL-hA2AAR (converted).

In test [1] the target is T2, NL-hA2BAR (Homo sapiens, UniProt P29275).
T2 construct: expressed in transfected cells
T2 sequence (P29275 1-332): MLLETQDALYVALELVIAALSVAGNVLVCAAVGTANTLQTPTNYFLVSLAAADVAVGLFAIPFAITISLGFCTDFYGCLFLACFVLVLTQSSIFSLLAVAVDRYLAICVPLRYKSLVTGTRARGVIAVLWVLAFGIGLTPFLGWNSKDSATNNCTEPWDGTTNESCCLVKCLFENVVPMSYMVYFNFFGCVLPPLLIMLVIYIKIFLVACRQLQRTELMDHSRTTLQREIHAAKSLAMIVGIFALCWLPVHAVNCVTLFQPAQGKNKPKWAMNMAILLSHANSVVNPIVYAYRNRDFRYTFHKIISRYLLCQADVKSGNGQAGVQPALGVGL
The test is described as follows: NanoBRET competition ligand-binding assay (CA200645 tracer), NL-hA2BAR. Conditions: CA200645 (25 nM) tracer, HEK293T cells, mean ± SEM; read-out: affinity values pKi, NL-hA2BAR (converted).

Another test deals with T3, NL-hA3AR (Homo sapiens, UniProt P0DMS8).
T3 construct: expressed in transfected cells
T3 sequence (P0DMS8 1-318): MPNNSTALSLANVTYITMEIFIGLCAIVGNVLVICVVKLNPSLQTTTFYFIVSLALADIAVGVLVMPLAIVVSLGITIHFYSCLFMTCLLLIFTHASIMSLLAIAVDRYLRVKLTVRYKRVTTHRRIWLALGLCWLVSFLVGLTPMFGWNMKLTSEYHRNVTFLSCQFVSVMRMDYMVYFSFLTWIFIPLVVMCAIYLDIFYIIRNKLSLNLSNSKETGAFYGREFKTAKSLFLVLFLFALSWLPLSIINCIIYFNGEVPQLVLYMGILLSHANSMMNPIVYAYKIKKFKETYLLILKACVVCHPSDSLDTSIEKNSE
Put plainly: cell-based. The format is binding. The note with it: CA200645 (25 nM) tracer, HEK293T cells, mean ± SEM; read-out: affinity values pKi, NL-hA3AR (converted).

For test [2], the target named is T2, NL-hA2BAR. The test is described as follows: NanoBRET saturation ligand-binding assay, NL-hA2BAR. How it is done:
Probes 11 and 12 were further evaluated for their ability to bind the other three adenosine receptor subtypes (NL-A2AAR, NL-A2BAR, and NL-A3AR), and their ligand-binding properties were quantified in the NanoBRET saturation and inhibition binding assays, respectively (Table 1 and Figure 4).
NanoBRET binding assay. All NanoBRET experiments were performed in white flat […]
(§1) 37 °C for kinetic binding experiments. Emissions were read at 420 nm (80 nm bandpass; […]
the SulfoCy5-labelled probe. […]
nm emission by the 420 nm emission. The term “raw BRET ratio” refers to the unprocessed data as no background ratio has been subtracted. In all NanoBRET binding […]
competitive antagonist selective for the adenosine receptor under investigation […]
MRS1220 for the A3AR). HEK293T cells stably/transiently expressing Nluc-AR were […]
were incubated for 1 h at 37 °C. […]
NanoBRET saturation binding assay. Total and nonspecific saturation binding curves were fit simultaneously using the following equation:
BRET ratio = Bmax[B] + M(B) + C […]
Uninhibited specific binding = 100 ― 100 x [A]

In a further test the target is T4, NL-hA1AR (Homo sapiens, UniProt P30542).
T4 construct: expressed in transfected cells
T4 sequence (P30542 1-326): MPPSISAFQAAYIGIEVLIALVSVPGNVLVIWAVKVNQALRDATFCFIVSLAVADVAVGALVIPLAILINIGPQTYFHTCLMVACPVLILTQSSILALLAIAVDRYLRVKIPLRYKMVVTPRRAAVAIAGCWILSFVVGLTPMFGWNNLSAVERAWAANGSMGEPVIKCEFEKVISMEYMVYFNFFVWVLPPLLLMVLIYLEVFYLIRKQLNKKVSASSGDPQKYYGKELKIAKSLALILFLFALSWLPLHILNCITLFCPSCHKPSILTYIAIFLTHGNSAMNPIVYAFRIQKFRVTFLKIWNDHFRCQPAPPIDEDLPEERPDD
The test is described as follows: NanoBRET dissociation kinetics, NL-hA1AR HEK293T cells. The note with it: cells prelabeled with 250 nM for 5 h, BRET monitored 60 min. The format is binding. How it is done: Figure 3 Molecular pharmacology and biochemical characterization of 11 and 12. NanoBRET ligand-binding data were measured in HEK293 cells stably expressing the human NL-A1AR (A–C) or rat NL-A1AR (D–F). […] Data were normalized to maximal BRET signals in the absence of unlabeled competing ligands (total binding, TB). (C, F) NanoBRET dissociation kinetics experiments with 11 (SulfoCy5) performed in human and rat NL-A1AR HEK293T cells, respectively. Cells were treated with 250 nM 11 (SulfoCy5, lilac open circles) for 5 h and CA200645 (black open triangles) for 2 h. […] TS-SNAP-A1AR was purified and separated on an SDS-PAGEgel gel, and direct Cy5 fluorescence was visualized using in-gel fluorescence. […]
The small reduction in the BRET signal observed toward the end of the reads could be mostly likely ascribed to substrate (furimazine) consumption. […] To confirm covalent labeling of A1AR by 11 and 12, HEK293G cells stably expressing a Twin-Strep-SNAP-A1AR(TS-SNAP-A1R) construct were treated with 11 or 12 prior to purification, separation by sodium dodecyl sulfate-polyacrylamide gel electrophoresis (SDS-PAGE) and visualization of labeled samples by in-gel fluorescence (Figure 3G). […]
as §1

T1 sequence (P29274 whole entry): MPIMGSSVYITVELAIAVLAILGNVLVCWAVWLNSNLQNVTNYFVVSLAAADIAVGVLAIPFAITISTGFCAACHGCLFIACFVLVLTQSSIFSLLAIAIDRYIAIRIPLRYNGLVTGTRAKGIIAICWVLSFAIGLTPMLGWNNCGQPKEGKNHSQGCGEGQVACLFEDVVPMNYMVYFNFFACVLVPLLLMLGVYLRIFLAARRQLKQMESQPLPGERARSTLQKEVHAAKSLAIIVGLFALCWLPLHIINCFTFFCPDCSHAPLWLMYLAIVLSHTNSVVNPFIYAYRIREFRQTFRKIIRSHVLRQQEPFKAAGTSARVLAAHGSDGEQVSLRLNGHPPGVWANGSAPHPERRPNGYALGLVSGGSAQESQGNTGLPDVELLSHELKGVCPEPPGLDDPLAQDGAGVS

For the compound `CCCCn1c(=O)c2[nH]c(C34CCC(C(=O)NCCNC(=O)CCNC(=O)c5ccc(OC(=O)CCC(=O)NCCOCCOCCNC(=O)O[C@H]6CC/C=C/CCC6)c(F)c5)(CC3)CC4)nc2n(CCCC)c1=O` [Compound 12, 4-((3-((2-(4-(1,3-Dibutyl-2,6-dioxo-2,3,6,7-tetrahydro-1H-purin-8-yl)bicyclo[2.2.2]octane-1-carboxamido)ethyl)amino)-3-oxopropyl)carbamoyl)-2-fluorophenyl (R,E)-1-(Cyclooct-4-en-1-yloxy)-1,12-dioxo-5,8-dioxa-2,11-diazapentadecan-15-oate], the Ki on NL-hA2AAR was 1380 nM; on NL-hA2BAR [1], 813 nM; at NL-hA3AR it was above 10000 nM.

For `CCCCn1c(=O)c2[nH]c(C34CCC(C(=O)NCCNC(=O)CCNC(=O)c5ccc(OC(=O)CCCCC[N+]6=C(/C=C/C=C/C=C7/N(C)c8ccc(S(=O)(=O)O)cc8C7(C)C)C(C)(C)c7cc(S(=O)(=O)[O-])ccc76)c(F)c5)(CC3)CC4)nc2n(CCCC)c1=O` [Compound 11, 1-(6-(4-((3-((2-(4-(1,3-Dibutyl-2,6-dioxo-2,3,6,7-tetrahydro-1H-purin-8-yl)bicyclo[2.2.2]octane-1-carboxamido)ethyl)amino)-3-oxopropyl)carbamoyl)-2-fluorophenoxy)-6-oxohexyl)-3,3-dimethyl-2-((1E,3E)-5-((E)-1,3,3-trimethyl-5-sulfoindolin-2-ylidene)penta-1,3-dien-1-yl)-3H-indol-1-ium-5-sulfonate], the Kd at NL-hA2BAR [2] (HEK293T cells stably expressing NL-hA2BAR, read-out: affinity values pKD, NL-hA2BAR (converted)) is above 1000 nM. The “BRET signal detected at NL-A2BAR” value at NL-hA2BAR [2] (concentrations tested 0–500 nM) is given as “minimal BRET signal”. The “change in BRET signal after addition of 10 μM DPCPX” value on NL-hA1AR is “very little change in the BRET signal”.
